Reference: US7776833B2, “Use of cyclic bioisosters of purine system derivatives for treating diseases produced by disorders of niterergic and dopaminergic systems” (priority 2003, dated 2010)

Assays:
Type in all cases: in vivo, Wistar rats
[1] = system: physical dependence from morphine (morphine abstinence); assay: Morphine abstinence syndrome, signs scored in the open field test; conditions: Morphine − (morphine + compound); compound 3 x 20 mg/kg intramuscularly; one value for the three compounds
[2] = system: nitrites and nitrates (NOx-); assay: Measurement of nitrates/nitrites (NOx-) in brain regions after the morphine abstinence experiment; conditions: 3 x 20 mg/kg intramuscularly
How it was run: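 Rat brain regions homogenized in 20 mM HEPES pH 7.5 at 4 °C; deproteinized supernatants treated with nitrate reductase, 25 μM NADPH, 25 μM FAD (37 °C, 30 min), then DAN in acid; naphthotriazole fluorescence (ex 365/em 405 nm) against sodium nitrate standard, expressed as nmol/mg protein (Bradford).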

[3] = system: nitric oxide synthase (NOS); assay: Nitric oxide synthase activity in brain regions, radiometric [3H]L-citrulline method; conditions: 3 x 20 mg/kg intramuscularly
How it was run: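 Rat cortex, hippocampus, mesencephalon, striatum, brainstem, hypothalamus and cerebellum were homogenized in 20 mM HEPES pH 7.5, and the 11000 g supernatant was incubated 15-60 min at 37 °C with [3H]L-arginine, 0.2 mM CaCl2, FAD, FMN, NADPH and BH4. [3H]L-citrulline was counted after Dowex removal of arginine. Ca2+-dependent/independent activity was split using EDTA ± L-NAME, per mg Bradford protein.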

[4] = Groups Nos. 3-14, compound without morphine, one value for all 12 compounds
[5] = Morphine + compound, one value for the three compounds

With Nc1cnc2c(=O)n([C@@H]3O[C@H](CO)[C@@H](O)[C@H]3O)[nH]c(=O)c2n1.[Na] [Compound 21, sodium salt of 3-amino-7-(β-D-ribofuranosile)pyrazino[2,3-d]-6H-pyridazine-5,8-dione] the “Authentic differences (ξ-square criterion) in appearance of signs of abstinence: <<Wet dog>> shakes” value (shortened to “Authentic differences … <<Wet dog>> shakes”) [1] was 0.7821, the “Authentic differences (ξ-square criterion) in appearance of signs of abstinence: Aggression” value (from here on “Authentic differences … Aggression”) [1] was 0.7921 and the “Authentic differences (ξ-square criterion) in appearance of signs of abstinence: Convulsions” value (“Authentic differences … Convulsions” for short) [1] was 0.3456. The “Authentic differences (ξ-square criterion) in appearance of signs of abstinence: Diarrhea” value (from here on “Authentic differences … Diarrhea”) [1] was 0.0067, the “Authentic differences (ξ-square criterion) in appearance of signs of abstinence: Dyspnea” value (shortened to “Authentic differences … Dyspnea”) [1] was 0.0567 and the “Authentic differences (ξ-square criterion) in appearance of signs of abstinence: Forelimb jogging” value (shortened to “Authentic differences … Forelimb jogging”) [1] was 0.6745. For the same molecule, the “Authentic differences (ξ-square criterion) in appearance of signs of abstinence: Grit with teeth” value (“Authentic differences … with teeth” below) [1] was 0.2994, the “Authentic differences (ξ-square criterion) in appearance of signs of abstinence: Mastication” value (from here on “Authentic differences … Mastication”) [1] was 0.1975 and the “Authentic differences (ξ-square criterion) in appearance of signs of abstinence: Piloerection” value (from here on “Authentic differences … Piloerection”) [1] was 0.2567. For the same molecule, the “Authentic differences (ξ-square criterion) in appearance of signs of abstinence: Ptosis” value (shortened to “Authentic differences … Ptosis”) [1] was 0.0105, the “Authentic differences (ξ-square criterion) in appearance of signs of abstinence: Rhinorrhea” value (from here on “Authentic differences … Rhinorrhea”) [1] was 0.2131 and the “Authentic differences (ξ-square criterion) in appearance of signs of abstinence: Squeak when touched” value (“Authentic differences … when touched” for short) [1] was 0.1968. For the same molecule, the “Nitrites, brainstem” value [2, 4] was 6.31 ± 0.58 nmol/mg of protein, the “Nitrites, cerebellum” value [2, 4] was 6.66 ± 0.63 nmol/mg of protein and the “Nitrites, cerebral cortex” value [2, 4] was 4.31 ± 0.37 nmol/mg of protein. The “Nitrites, hippocampus” value [2, 4] was 6.47 ± 0.72 nmol/mg of protein, the “Nitrites, hypothalamus” value [2, 4] was 6.77 ± 0.83 nmol/mg of protein and the “Nitrites, midbrain” value [2, 4] was 6.65 ± 0.70 nmol/mg of protein. For the same molecule, the “Nitrites, striatum” value [2, 4] was 6.11 ± 0.29 nmol/mg of protein, the “Nitrites, brainstem” value [2, 5] was 7.07 ± 0.85 nmol/mg of protein and the “Nitrites, cerebellum” value [2, 5] was 5.76 ± 0.49 nmol/mg of protein. For the same molecule, the “Nitrites, cerebral cortex” value [2, 5] was 4.62 ± 0.27 nmol/mg of protein, the “Nitrites, hippocampus” value [2, 5] was 5.27 ± 0.41 nmol/mg of protein and the “Nitrites, hypothalamus” value [2, 5] was 6.87 ± 0.75 nmol/mg of protein. For the same molecule, the “Nitrites, midbrain” value [2, 5] was 5.99 ± 0.58 nmol/mg of protein, the “Nitrites, striatum” value [2, 5] was 3.57 ± 0.42 nmol/mg of protein and the “Activity of NOS, hippocampus” value [3, 4] was 3.09 ± 0.16 nmol/min/mg of protein. The “Activity of NOS, hypothalamus” value [3, 4] was 5.45 ± 0.24 nmol/min/mg of protein, the “Activity of NOS, midbrain” value [3, 4] was 2.60 ± 0.29 nmol/min/mg of protein and the “Activity of NOS, striatum” value [3, 4] was 1.26 ± 0.08 nmol/min/mg of protein. For the same molecule, the “Activity of NOS, hippocampus” value [3, 5] was 2.33 ± 0.11 nmol/min/mg of protein, the “Activity of NOS, hypothalamus” value [3, 5] was 5.47 ± 0.32 nmol/min/mg of protein and the “Activity of NOS, midbrain” value [3, 5] was 2.03 ± 0.31 nmol/min/mg of protein. The “Activity of NOS, striatum” value [3, 5] was 1.21 ± 0.10 nmol/min/mg of protein.
O=c1[nH]n([C@@H]2O[C@H](CO)[C@@H](O)[C@H]2O)c(=O)c2nc(Br)ncc12.[Na] [Compound 32, sodium salt of 2-bromine-7-(β-D-ribofuranosile)pyrimido[4,5-d]-6H-pyridazine-5,8-dione] was tested, and the “Authentic differences … <<Wet dog>> shakes” value [1] was 1.0000, the “Authentic differences … Aggression” value [1] was 0.8456 and the “Authentic differences … Convulsions” value [1] was 0.5578. The “Authentic differences … Diarrhea” value [1] was 0.0001, the “Authentic differences … Dyspnea” value [1] was 0.0685 and the “Authentic differences … Forelimb jogging” value [1] was 0.9321. For the same molecule, the “Authentic differences … with teeth” value [1] was 0.7003, the “Authentic differences … Mastication” value [1] was 0.1888 and the “Authentic differences … Piloerection” value [1] was 0.2345. For the same molecule, the “Authentic differences … Ptosis” value [1] was 0.0232, the “Authentic differences … Rhinorrhea” value [1] was 0.2935 and the “Authentic differences … when touched” value [1] was 0.2035. The “Nitrites, brainstem” value [2, 4] was 6.31 ± 0.58 nmol/mg of protein, the “Nitrites, cerebellum” value [2, 4] was 6.66 ± 0.63 nmol/mg of protein and the “Nitrites, cerebral cortex” value [2, 4] was 4.31 ± 0.37 nmol/mg of protein. The “Nitrites, hippocampus” value [2, 4] was 6.47 ± 0.72 nmol/mg of protein, the “Nitrites, hypothalamus” value [2, 4] was 6.77 ± 0.83 nmol/mg of protein and the “Nitrites, midbrain” value [2, 4] was 6.65 ± 0.70 nmol/mg of protein. For the same molecule, the “Nitrites, striatum” value [2, 4] was 6.11 ± 0.29 nmol/mg of protein, the “Nitrites, brainstem” value [2, 5] was 6.87 ± 0.81 nmol/mg of protein and the “Nitrites, cerebellum” value [2, 5] was 5.93 ± 0.54 nmol/mg of protein. For the same molecule, the “Nitrites, cerebral cortex” value [2, 5] was 4.84 ± 0.31 nmol/mg of protein, the “Nitrites, hippocampus” value [2, 5] was 5.31 ± 0.33 nmol/mg of protein and the “Nitrites, hypothalamus” value [2, 5] was 6.77 ± 0.46 nmol/mg of protein. For the same molecule, the “Nitrites, midbrain” value [2, 5] was 5.95 ± 0.52 nmol/mg of protein, the “Nitrites, striatum” value [2, 5] was 3.57 ± 0.42 nmol/mg of protein and the “Activity of NOS, hippocampus” value [3, 4] was 3.09 ± 0.16 nmol/min/mg of protein. For the same molecule, the “Activity of NOS, hypothalamus” value [3, 4] was 5.45 ± 0.24 nmol/min/mg of protein, the “Activity of NOS, midbrain” value [3, 4] was 2.60 ± 0.29 nmol/min/mg of protein and the “Activity of NOS, striatum” value [3, 4] was 1.26 ± 0.08 nmol/min/mg of protein. The “Activity of NOS, hippocampus” value [3, 5] was 2.65 ± 0.15 nmol/min/mg of protein, the “Activity of NOS, hypothalamus” value [3, 5] was 5.56 ± 0.34 nmol/min/mg of protein and the “Activity of NOS, midbrain” value [3, 5] was 1.89 ± 0.27 nmol/min/mg of protein. For the same molecule, the “Activity of NOS, striatum” value [3, 5] was 1.34 ± 0.09 nmol/min/mg of protein.
O=c1[nH][nH]c(=O)c2ncccc12.[Li] [Compound 6, lithium salt of pyrido [2,3-d]-6H-pyridazine-5,8-dione] was tested, and the “Authentic differences … <<Wet dog>> shakes” value [1] was 1.0000, the “Authentic differences … Aggression” value [1] was 0.8327 and the “Authentic differences … Convulsions” value [1] was 0.7821. For the same molecule, the “Authentic differences … Diarrhea” value [1] was 0.0046, the “Authentic differences … Dyspnea” value [1] was 0.0722 and the “Authentic differences … Forelimb jogging” value [1] was 0.7821. For the same molecule, the “Authentic differences … with teeth” value [1] was 0.7144, the “Authentic differences … Mastication” value [1] was 0.1888 and the “Authentic differences … Piloerection” value [1] was 0.1847. For the same molecule, the “Authentic differences … Ptosis” value [1] was 0.0201, the “Authentic differences … Rhinorrhea” value [1] was 0.3017 and the “Authentic differences … when touched” value [1] was 0.1888. For the same molecule, the “Nitrites, brainstem” value [2, 4] was 6.31 ± 0.58 nmol/mg of protein, the “Nitrites, cerebellum” value [2, 4] was 6.66 ± 0.63 nmol/mg of protein and the “Nitrites, cerebral cortex” value [2, 4] was 4.31 ± 0.37 nmol/mg of protein. The “Nitrites, hippocampus” value [2, 4] was 6.47 ± 0.72 nmol/mg of protein, the “Nitrites, hypothalamus” value [2, 4] was 6.77 ± 0.83 nmol/mg of protein and the “Nitrites, midbrain” value [2, 4] was 6.65 ± 0.70 nmol/mg of protein. For the same molecule, the “Nitrites, striatum” value [2, 4] was 6.11 ± 0.29 nmol/mg of protein, the “Nitrites, brainstem” value [2, 5] was 6.57 ± 0.72 nmol/mg of protein and the “Nitrites, cerebellum” value [2, 5] was 5.46 ± 0.44 nmol/mg of protein. The “Nitrites, cerebral cortex” value [2, 5] was 4.72 ± 0.37 nmol/mg of protein, the “Nitrites, hippocampus” value [2, 5] was 5.44 ± 0.43 nmol/mg of protein and the “Nitrites, hypothalamus” value [2, 5] was 6.57 ± 0.88 nmol/mg of protein. For the same molecule, the “Nitrites, midbrain” value [2, 5] was 5.50 ± 0.48 nmol/mg of protein, the “Nitrites, striatum” value [2, 5] was 3.57 ± 0.42 nmol/mg of protein and the “Activity of NOS, hippocampus” value [3, 4] was 3.09 ± 0.16 nmol/min/mg of protein. For the same molecule, the “Activity of NOS, hypothalamus” value [3, 4] was 5.45 ± 0.24 nmol/min/mg of protein, the “Activity of NOS, midbrain” value [3, 4] was 2.60 ± 0.29 nmol/min/mg of protein and the “Activity of NOS, striatum” value [3, 4] was 1.26 ± 0.08 nmol/min/mg of protein. The “Activity of NOS, hippocampus” value [3, 5] was 2.70 ± 0.14 nmol/min/mg of protein, the “Activity of NOS, hypothalamus” value [3, 5] was 5.26 ± 0.28 nmol/min/mg of protein and the “Activity of NOS, midbrain” value [3, 5] was 1.83 ± 0.23 nmol/min/mg of protein. The “Activity of NOS, striatum” value [3, 5] was 1.24 ± 0.08 nmol/min/mg of protein.
